From patent publication US20040248984A1, “Use of $g(b)-adrenoceptor agonists for the treatment of neurodegenerative diseases” (priority 2001, published 2004)

Tested on: Primary cultures of astrocytes
Experiment: Activation of astrocytes (morphological change in primary astrocyte cultures)
Format: cell-based, Fischer 344 rats
Conditions: 6 hours after start of treatment, serum-free medium, microscope 200× magnification, versus polygonal flat control cells (FIG. 1/7)
Procedure: 1) Activation of Astrocytes
Primary cultures of astrocytes were obtained from the cerebral cortical tissue of newborn Fischer 344 rats within 24 hours after birth. The brains were dissected out of the vault of the cranium under sterile conditions, the cortical tissue (cortex) was isolated, and the cells were dissociated through a narrow-mesh wire netting. The cells were put into cell culture bottles and cultivated in serum-containing DMEM solution (contained fetal calf serum and a penicillin/streptomycin mixture) until the cells were confluent. Oligodendrocytes and microglia were removed by washing with cold buffer solution. The confluent astrocytes were then detached from the base of the culture bottles with a trypsin solution and seeded in a density of 20 000 cells/cm2 in Petri dishes on coverslips and cultivated in serum-containing medium until the cells were again confluent. Two days after confluence, the medium was replaced by serum-free medium and, after 24 hours, the medium was replaced again, likewise by serum-free medium. Twenty-four hours after the second replacement of medium, salmeterol was added. Six hours after the treatment, the astrocytes were photographed under the microscope with 200× magnification to document the morphological changes (FIG. 1/7).

OCc1cc(C(O)CNCCCCCCOCCCCc2ccccc2)ccc1O (stereo not shown) [salmeterol]
morphological changes of astrocytes (activation): activated, stellate and refractile astrocytes
